Test results published in patent publication US20180153995A1, “USE OF ANTIMICROBIAL POLYMERS FOR RE-SENSITIZATION OF MICROORGANISMS UPON EMERGENCE OF RESISTANCE TO ANTI-MICROBIAL AGENTS” (Technion Research & Development Foundation Limited, priority 2008, published 2018).
Where two headings read alike, the source gives them in different places.

Key:
S. aureus 43300 = test: Antibiotic MIC by microdilution with or without sub-MIC polymer; format: cell-based, Staphylococcus aureus
Experimental: (§1) MICs were determined by microdilution susceptibility testing in 96-well plates (by Nunc) using inocula of 10^5 bacteria per ml. Cell populations were evaluated by optical density measurements at 620 nm and were calibrated against a set of standards. Hundred (100) μl of a bacterial suspension were added to 100 μl of culture medium (control) or to 100 μl of culture medium containing various polymer concentrations in 2-fold serial dilutions. Inhibition of proliferation was determined by optical density measurements at 620 nm after an incubation period of 24 hours at 37° C.
Table 8 below presents the MIC values of antibiotics in presence or absence of C12(5-ene)KKNC12KNH2 (SEQ ID NO: 2) at sub-MIC levels of the polymer, as measured for the S. aureus strains 43300 (ATCC), 15819 (clinical isolate), 15877 (clinical isolate) and 15852 (clinical isolate). MICs were determined by microdilution susceptibility testing in 96-well plates (Nunc) using inocula of 10^5 bacteria per ml. One hundred (100) μl of a bacterial suspension were added to 100 μl of culture medium (control) or to 100 μl of culture medium containing various antibiotic and C12(5-ene)KKNC12KNH2 (SEQ ID NO: 2) concentrations in 2-fold serial dilutions. Inhibition of proliferation was determined by optical density measurements at 620 nm after an incubation period of 24 hours at 37° C.
(§2) 100 μl of a bacterial suspension were added to 100 μl of culture medium (control) or to 100 μl of culture medium containing various antibiotic and C14(9-ene)KKNC12KNH2 (SEQ ID NO: 5) concentrations in 2-fold serial dilutions. Inhibition of proliferation was determined by optical density measurements at 620 nm after an incubation period of 24 hours at 37° C.

P. mirabilis 1285 [1] = format: cell-based, Proteus mirabilis; details: no polymer (None), Table 12
Experimental: as §1, §2

P. mirabilis 1285 [2] = format: cell-based, Proteus mirabilis
P. aeruginosa 8732 = test: Antibiotic MIC by microdilution with or without sub-MIC polymer; format: cell-based, Pseudomonas aeruginosa
Experimental: as §1
Inhibition of proliferation was determined by optical density measurements at 620 nm after an incubation period of 24 hours at 37° C.

MRSA 15852 = format: cell-based, Staphylococcus aureus; details: S. aureus 15852
Experimental: The fractionary inhibitory (FIC) concentration index for combinations of two antimicrobial agents was calculated as follows: FIC index=FICA+FICB=A/MICA+B/MICB where A and B are the MIC values of agent A and agent B in the combination, MICA and MICB are the MICs of agent A and agent B alone, and FICA and FICB are the FICs of agent A and agent B.
The FIC indexes were interpreted as follows: less than 0.5 indicates a clear re-sensitizing effect; from 0.5 to 4 indicates a marginal or null re-sensitizing effect; and over 4 indicates antagonism.

E. coli D21 = test: Antibiotic MIC with or without sub-MIC polymer (Tables 20, 21); format: cell-based, Escherichia coli
E. coli G11a1 = test: as above; format: cell-based, Escherichia coli
Experimental: as §1

E. coli AG100/ks = test: as above; format: cell-based, Escherichia coli
E. coli AG100 = test: as above; format: cell-based, Escherichia coli
[3] = +¼ MIC (1.6 μM) C14(9-ene)KKNC12KNH2
[4] = +½ MIC (3.12 μM) C12(5-ene)KKNC12KNH2
[5] = +½ MIC (3.12 μM) C14(9-ene)KKNC12KNH2
[6] = +⅓ MIC (2.1 μM) C14(9-ene)KKNC12KNH2
[7] = +¼ MIC (1.6 μM) C12K(KNC12K)2NH2
[8] = +½ MIC (3.12 μM) C12K(KNC12K)2NH2
[9] = +⅓ MIC (2.1 μM) C12K(KNC12K)2NH2
[10] = P. aeruginosa 8732, no polymer (None), Table 10
[11] = +¼ MIC (1.6 μM) C12(5-ene)KKNC12KNH2
[12] = +⅓ MIC (2.1 μM) C12(5-ene)KKNC12KNH2

With `O=C(O)c1cn(C2CC2)c2cc(N3CCNCC3)c(F)cc2c1=O` [Ciprofloxacin, ciprofloxacin] the “Antibiotic MIC” value (S. aureus 43300; [3]) was 0.25 to 0.5 µg/mL, the “Antibiotic MIC” value (S. aureus 43300; [4]) was 0.03 µg/mL and the “Antibiotic MIC” value (S. aureus 43300; [5]) was 0.25 µg/mL. For the same compound, the “Antibiotic MIC” value (S. aureus 43300; [6]) was 0.25 to 0.5 µg/mL, the “Antibiotic MIC” value (S. aureus 43300; no polymer (None), Table 8) was 0.5 µg/mL and the “Antibiotic MIC” value (S. aureus 43300; no polymer (None), Table 9) was 0.5 µg/mL. The “Antibiotic MIC” value (S. aureus 43300; no polymer (None), Table 10) was 0.25 µg/mL, the “Antibiotic MIC” value (S. aureus 43300; no polymer (None), Table 11) was 0.5 µg/mL and the “Antibiotic MIC” value (S. aureus 43300; no polymer (None), Table 12) was 0.5 µg/mL. For the same compound, the “Antibiotic MIC” value (P. mirabilis 1285 [1]) was 32 µg/mL, the “Antibiotic MIC” value (P. mirabilis 1285 [2]; [7]) was 32 µg/mL and the “Antibiotic MIC” value (P. mirabilis 1285 [2]; [8]) was 8 µg/mL. The “Antibiotic MIC” value (P. mirabilis 1285 [2]; [9]) was 16 µg/mL, the “Antibiotic MIC” value (P. aeruginosa 8732; [10]) was under 0.03 µg/mL and the “Antibiotic MIC” value (MRSA 15852; [11]) was 16 µg/mL. The “Antibiotic MIC” value (MRSA 15852; +¼ MIC (1.6 μM) C12KKNC12KNH2) was 32 µg/mL, the “Antibiotic MIC” value (MRSA 15852; [4]) was 16 µg/mL and the “Antibiotic MIC” value (MRSA 15852; +½ MIC (3.12 μM) C12KKNC12KNH2) was 32 µg/mL. The “Antibiotic MIC” value (MRSA 15852; [12]) was 16 µg/mL, the “Antibiotic MIC” value (MRSA 15852; +⅓ MIC (2.1 μM) C12KKNC12KNH2) was 32 µg/mL and the “Antibiotic MIC” value (MRSA 15852; no polymer (None), Table 8) was 16 µg/mL. The “Antibiotic MIC” value (MRSA 15852; no polymer (None), Table 11) was 32 µg/mL.
In the case of `CC[C@H]1OC(=O)[C@H](C)[C@@H](O[C@H]2C[C@@](C)(OC)[C@@H](O)[C@H](C)O2)[C@H](C)[C@@H](O[C@@H]2O[C@H](C)C[C@H](N(C)C)[C@H]2O)[C@](C)(O)C[C@@H](C)C(=O)[C@H](C)[C@@H](O)[C@]1(C)O` [Erythromycin, erythromycin], the “Antibiotic MIC” value (MRSA 15852; [11]) is reported as over 512 µg/mL, the “Antibiotic MIC” value (MRSA 15852; +¼ MIC (1.6 μM) C12KKNC12KNH2) is reported as over 512 µg/mL and the “Antibiotic MIC” value (MRSA 15852; [4]) is reported as over 512 µg/mL. The “Antibiotic MIC” value (MRSA 15852; +½ MIC (3.12 μM) C12KKNC12KNH2) was over 512 µg/mL, the “Antibiotic MIC” value (MRSA 15852; [12]) was over 512 µg/mL and the “Antibiotic MIC” value (MRSA 15852; +⅓ MIC (2.1 μM) C12KKNC12KNH2) was over 512 µg/mL. The “Antibiotic MIC” value (MRSA 15852; no polymer (None), Table 8) was over 512 µg/mL and the “Antibiotic MIC” value (MRSA 15852; no polymer (None), Table 11) was over 512 µg/mL.
In the case of `CC1(C)S[C@@H]2[C@H](NC(=O)Cc3ccccc3)C(=O)N2[C@H]1C(=O)O` [Penicillin G, penicillin G], the “Antibiotic MIC, None” value (E. coli D21; antibiotic alone (Table 20)) is reported as 512 µg/mL, the “Antibiotic MIC, None” value (E. coli D21; antibiotic alone (Table 21)) is reported as 512 µg/mL and the “Antibiotic MIC in presence of C12K(NC8K)5NH2 (SEQ ID NO: 3), +¼ MIC” value (from here on “Antibiotic MIC … (SEQ ID NO: 3), +¼ MIC”) (E. coli D21; polymer at ¼ of its MIC) is reported as 512 µg/mL. The “Antibiotic MIC in presence of C12K(NC8K)7NH2 (SEQ ID NO: 4), +¼ MIC” value (E. coli D21; polymer at ¼ of its MIC) was 512 µg/mL, the “Antibiotic MIC in presence of C12K(NC8K)5NH2 (SEQ ID NO: 3), +½ MIC” value (“Antibiotic MIC … (SEQ ID NO: 3), +½ MIC” below) (E. coli D21; polymer at ½ of its MIC) was 256 µg/mL and the “Antibiotic MIC in presence of C12K(NC8K)7NH2 (SEQ ID NO: 4), +½ MIC” value (E. coli D21; polymer at ½ of its MIC) was 256 µg/mL. For the same compound, the “Antibiotic MIC in presence of C12K(NC8K)5NH2 (SEQ ID NO: 3), +⅓ MIC” value (shortened to “Antibiotic MIC … (SEQ ID NO: 3), +⅓ MIC”) (E. coli D21; polymer at ⅓ of its MIC) was 256 to 512 µg/mL, the “Antibiotic MIC in presence of C12K(NC8K)7NH2 (SEQ ID NO: 4), +⅓ MIC” value (E. coli D21; polymer at ⅓ of its MIC) was 512 µg/mL and the “Antibiotic MIC” value (S. aureus 43300; [3]) was 4 µg/mL. For the same compound, the “Antibiotic MIC” value (S. aureus 43300; [4]) was 0.03 µg/mL, the “Antibiotic MIC” value (S. aureus 43300; [5]) was 2 µg/mL and the “Antibiotic MIC” value (S. aureus 43300; [6]) was 4 µg/mL. The “Antibiotic MIC” value (S. aureus 43300; no polymer (None), Table 8) was 4 µg/mL, the “Antibiotic MIC” value (S. aureus 43300; no polymer (None), Table 9) was 4 µg/mL and the “Antibiotic MIC” value (S. aureus 43300; no polymer (None), Table 10) was 4 µg/mL. For the same compound, the “Antibiotic MIC” value (S. aureus 43300; no polymer (None), Table 11) was 8 µg/mL, the “Antibiotic MIC” value (S. aureus 43300; no polymer (None), Table 12) was 8 µg/mL and the “Antibiotic MIC” value (P. mirabilis 1285 [1]) was 512 µg/mL. The “Antibiotic MIC” value (P. mirabilis 1285 [2]; [7]) was 512 µg/mL, the “Antibiotic MIC” value (P. mirabilis 1285 [2]; [8]) was 512 µg/mL and the “Antibiotic MIC” value (P. mirabilis 1285 [2]; [9]) was 512 µg/mL. The “Antibiotic MIC, None” value (E. coli G11a1; antibiotic alone (Table 20)) was 512 µg/mL, the “Antibiotic MIC, None” value (E. coli G11a1; antibiotic alone (Table 21)) was 512 µg/mL and the “Antibiotic MIC, None” value (E. coli AG100/ks; antibiotic alone (Table 20)) was over 512 µg/mL. For the same compound, the “Antibiotic MIC, None” value (E. coli AG100/ks; antibiotic alone (Table 21)) was over 512 µg/mL, the “Antibiotic MIC … (SEQ ID NO: 3), +¼ MIC” value (E. coli AG100/ks; polymer at ¼ of its MIC) was over 512 µg/mL and the “Antibiotic MIC … (SEQ ID NO: 3), +½ MIC” value (E. coli AG100/ks; polymer at ½ of its MIC) was over 512 µg/mL. The “Antibiotic MIC … (SEQ ID NO: 3), +⅓ MIC” value (E. coli AG100/ks; polymer at ⅓ of its MIC) was over 512 µg/mL, the “Antibiotic MIC” value (P. aeruginosa 8732) was 512 µg/mL and the “Antibiotic MIC” value (P. aeruginosa 8732; P. aeruginosa 8732, +½ MIC (3.12 μM) C16(9-ene)KKNC12KNH2) was 512 µg/mL. For the same compound, the “Antibiotic MIC” value (P. aeruginosa 8732; P. aeruginosa 8732, +⅓ MIC (2.1 μM) C16(9-ene)KKNC12KNH2) was 512 µg/mL, the “Antibiotic MIC” value (P. aeruginosa 8732; [10]) was 512 µg/mL and the “Antibiotic MIC, None” value (E. coli AG100; antibiotic alone (Table 20)) was 32 µg/mL. For the same compound, the “Antibiotic MIC, None” value (E. coli AG100; antibiotic alone (Table 21)) was 32 µg/mL, the “Antibiotic MIC … (SEQ ID NO: 3), +¼ MIC” value (E. coli AG100; polymer at ¼ of its MIC) was 16 µg/mL and the “Antibiotic MIC in presence of C12K(NC8K)7NH2 (SEQ ID NO: 4), +¼ MIC” value (E. coli AG100; polymer at ¼ of its MIC) was 16 to 32 µg/mL. The “Antibiotic MIC … (SEQ ID NO: 3), +½ MIC” value (E. coli AG100; polymer at ½ of its MIC) was 8 µg/mL, the “Antibiotic MIC in presence of C12K(NC8K)7NH2 (SEQ ID NO: 4), +½ MIC” value (E. coli AG100; polymer at ½ of its MIC) was 8 µg/mL and the “Antibiotic MIC … (SEQ ID NO: 3), +⅓ MIC” value (E. coli AG100; polymer at ⅓ of its MIC) was 16 µg/mL. For the same compound, the “Antibiotic MIC in presence of C12K(NC8K)7NH2 (SEQ ID NO: 4), +⅓ MIC” value (E. coli AG100; polymer at ⅓ of its MIC) was 8 to 16 µg/mL, the “Antibiotic MIC” value (MRSA 15852; [11]) was 32 µg/mL and the “Antibiotic MIC” value (MRSA 15852; +¼ MIC (1.6 μM) C12KKNC12KNH2) was 64 µg/mL. The “Antibiotic MIC” value (MRSA 15852; [4]) was 32 µg/mL, the “Antibiotic MIC” value (MRSA 15852; +½ MIC (3.12 μM) C12KKNC12KNH2) was 64 µg/mL and the “Antibiotic MIC” value (MRSA 15852; [12]) was 32 µg/mL. The “Antibiotic MIC” value (MRSA 15852; +⅓ MIC (2.1 μM) C12KKNC12KNH2) was 64 µg/mL, the “Antibiotic MIC” value (MRSA 15852; no polymer (None), Table 8) was 32 µg/mL and the “Antibiotic MIC” value (MRSA 15852; no polymer (None), Table 11) was 64 µg/mL.
